Where two headings read alike, the source gives them in different places.
What was measured:
[1] = tested on: isogenic HIV-1 RT mutant virus Y181C; test: HeLa cell assay (HIV-LTR β-galactosidase reporter); format: cell-based; settings: Human immunodeficiency virus 1, HeLa, read-out: IC50 (nM) Range
Experimental: (§1) The HeLa cell assay was performed according to a modification of Kimpton J. and Emerman M., Detection of replication-competent and pseudotyped human immunodeficiency virus with a sensitive cell line on the basis of activation of an integrated β-galactosidase gene, J. Virol. 66:2232-2239 (1992), in which HIV-1 infection is detected by the activation of an HIV-LTR driven β-galactosidase reporter that is integrated into the genome of a CD4^+ HeLa cell line. Quantitation of β-galactosidase is achieved by measuring the activation of a chemiluminescent substrate (Tropix). The concentration of each compound required to inhibit 50% (IC50) of the HIV-1 induced β-galactosidase signal, relative to untreated controls, was determined for each isogenic, recombinant virus.
(§2) HeLa-CD4-LTR-β-gal cells were obtained from the NIH AIDS Research and Reference Reagent Program. Cells were propagated in DMEM containing 10% fetal bovine serum, 0.2 mg/ml geneticin and 0.1 mg/ml hygromycin B. Cells were routinely split by trypsinization when confluency reached 80% (approximately every 2 to 3 days).
(§3) DNA encoding the HIV-1 reverse transcriptase was subcloned from a M13 phage into a general shuttle vector, pBCSK+, as a ˜1.65 kbp EcoRI/HindIII ended DNA fragment. The HIV DNA insert of the resulting plasmid, pRT2, was completely sequenced on both strands prior to use in site directed mutagenesis experiments. Specific amino acid replacements were made using Stratagene Quick Change reagents and mutagenic oligonucleotides from Oligos. Following mutagenesis, the entire mutant RT coding sequence was verified by sequencing both DNA strands.
(§4) Mutant HIV-1 strains were isolated by a modified Recombinant Virus Assay (Kellam P. and Larder B., Recombinant virus assay: a rapid, phenotypic assay for assessment of drug susceptibility of human immunodeficiency virus type 1 isolates, Antimicrobial Agents and Chemotherapy, 38:23-30, 1994). 1×10^7 Jurkat T-cells (maintained in RPMI containing 10% fetal bovine serum, split 1:5 every 5 to 6 days) were co-transfected with EcoRI/HindIII digested mutant RT plasmid and Bst EII-digested HIV-1HXB2ΔRT DNA in the presence of DMRIE-C transfection reagent (Gibco) according to supplier's recommended protocol. Each mutant RT coding sequence was crossed into the RT-deleted HIV-1 viral DNA backbone by in vivo homologous recombination. Transfected cell cultures were expanded and monitored until syncitia formation and CPE were extensive. Virus was harvested by clear spin of the culture supernatants and frozen at −80 C as primary stock. Recombinant progeny virus was sequenced in the RT region to confirm the mutant genotype. Virus stocks were further expanded by infection of Jurkat cells, harvested and stored as frozen aliquots. Stocks were titered in HeLa MAGI cells for assay.
(§5) The HIV-1HXB2 mutants were titered in the HeLa MAGI assay system to determine the relative light units (RLU) per ml, a measure of infectivity relevant for this assay system. Virus stocks were diluted in a 2-fold series into DMEM containing 10% fetal bovine serum plus 20 ug/ml DEAE-dextran and assayed as described in the Experimental Protocol section, below.
(§6) 96-well microtiter plate(s) (Costar #3598) were seeded with 3×10^3 HeLa-CD4-LTR-β-gal in 100 μl DMEM containing 10% fetal bovine serum. Plates were placed in a 37° C., 5% CO2 humidified incubator overnight. The following day, mutant virus stocks were thawed in a room temperature water bath and diluted into DMEM containing 10% fetal bovine serum and 20 μg/ml DEAE-dextran to achieve an input of 1500 to 2000 RLU/ml. All media was removed with an 8 channel manifold aspirator and 35 μl (50 to 70 total RLUs) of diluted virus was added to each well for virus adsorption. Plates were placed in a 37° C., 5% CO2 humidified incubator for 1.5 to 2 hours.
(§7) Compound titration plates were prepared at 1.35× final concentration during the virus adsorption period. […]

[2] = tested on: isogenic HIV-1 RT mutant virus K103N; test: HeLa cell assay (HIV-LTR β-galactosidase reporter); format: cell-based; settings: Human immunodeficiency virus 1, HeLa, read-out: IC50 (nM) Range
Experimental: as §1, §2, §3, §4, §5, §6, §7

[3] = tested on: isogenic HIV-1 RT mutant virus K103N/Y181C; test: HeLa cell assay (HIV-LTR β-galactosidase reporter); format: cell-based; settings: Human immunodeficiency virus 1, HeLa, read-out: IC50 (nM) Range
Experimental: as §1, §2, §3, §4, §5, §6, §7

HIV-1 (strain IIIB) = test: MT4 cell assay, antiviral HIV activity (propidium iodide); format: cell-based; settings: Human immunodeficiency virus 1, IIIB
Experimental: Antiviral HIV activity and compound-induced cytotoxicity were measured in parallel by means of a propidium iodide based procedure in the human T-cell lymphotropic virus transformed cell line MT4. Aliquots of the test compounds were serially diluted in medium (RPMI 1640, 10% fetal calf serum (FCS), and gentamycin) in 96-well plates (Costar 3598) using a Cetus Pro/Pette. Exponentially growing MT4 cells were harvested and centrifuged at 1000 rpm for 10 min in a Jouan centrifuge (model CR 4 12). Cell pellets were resuspended in fresh medium (RPMI 1640, 20% FCS, 20% IL-2, and gentamycin) to a density of 5×10^5 cells/ml. Cell aliquots were infected by the addition of HIV-1 (strain IIIB) diluted to give a viral multiplicity of infection of 100×TCID50. A similar cell aliquot was diluted with medium to provide a mock-infected control. Cell infection was allowed to proceed for 1 hr at 37° C. in a tissue culture incubator with humidified 5% CO2 atmosphere. After the 1 hr incubation the virus/cell suspensions were diluted 6-fold with fresh medium, and 125 μl of the cell suspension was added to each well of the plate containing pre-diluted compound. Plates were then placed in a tissue culture incubator with humidified 5% CO2 for 5 days. At the end of the incubation period, 27 μl of 5% Nonidet-40 was added to each well of the incubation plate. After thorough mixing with a Costar multitip pipetter, 60 μl of the mixture was transferred to filter-bottomed 96-well plates. The plates were analyzed in an automated assay instrument (Screen Machine, Idexx Laboratories). The control and standard used was 3′-azido-3′-deoxythymidine tested over a concentration range of 0.01 to 1 μM in every assay. […] The assay-makes use of a propidium iodide dye to estimate the DNA content of each well.
The antiviral effect of a test compound is reported as an IC50, i.e. the inhibitory concentration that would produce a 50% decrease in the HIV-induced cytopathic effect. This effect is measured by the amount of test compound required to restore 50% of the cell growth of HIV-infected MT4 cells, compared to uninfected MT4 cell controls. IC50 was calculated by RoboSage, Automated Curve Fitting Program, version 5.00, 10 Jul. 1995.
For each assay plate, the results (relative fluorescence units, rfU) of wells containing uninfected cells or infected cells with no compound were averaged, respectively. For measurements of compound-induced cytotoxicty, results from wells containing various compound concentrations and uninfected cells were compared to the average of uninfected cells without compound treatment. Percent of cells remaining is determined by the following formula: Percent of cells remaining=(compound−treated uninfected cells, rfU/untreated uninfected cells)×100.
A level of percent of cells remaining of 79% or less indicates a significant level of direct compound-induced cytotoxicity for the compound at that concentration. When this condition occurs the results from the compound-treated infected wells at this concentration are not included in the calculation of IC50.
For measurements of compound antiviral activity, results from wells containing various compound concentrations and infected cells are compared to the average of uninfected and infected cells without compound treatment. Percent inhibition of virus is determined by the following formula: Percent inhibition of virus=(1−((ave. untreated uninfected cells−treated infected cells)/(ave. untreated uninfected cells−ave. untreated infected cells)))×100

NEV-R = test: as above; format: cell-based; settings: Human immunodeficiency virus 1, MT4, read-out: IC50 (nM) Range
WTRVA = test: HeLa cell assay (HIV-LTR β-galactosidase reporter); format: cell-based, HIV-1; settings: Human immunodeficiency virus 1, Virus Type WTRVA, read-out: IC50 (nM) Range
Experimental: as §1, §2, §3, §4, §5, §6, §7

HIV-2 = test: MT4 cell assay, antiviral HIV activity (propidium iodide); format: cell-based; settings: Human immunodeficiency virus 2, Virus Type HIV-2, read-out: IC50 (nM) Range
[4] = tested on: isogenic HIV-1 RT mutant virus V106A; test: HeLa cell assay (HIV-LTR β-galactosidase reporter); format: cell-based; settings: Human immunodeficiency virus 1, HeLa, read-out: IC50 (nM) Range
Experimental: as §1, §2, §3, §4, §5, §6, §7

[5] = tested on: isogenic HIV-1 RT mutant virus V106I/Y181C; test: HeLa cell assay (HIV-LTR β-galactosidase reporter); format: cell-based; settings: Human immunodeficiency virus 1, HeLa, read-out: IC50 (nM) Range
Experimental: as §1, §2, §3, §4, §5, §6, §7

[6] = tested on: isogenic HIV-1 RT mutant virus V106A/Y181C; test: HeLa cell assay (HIV-LTR β-galactosidase reporter); format: cell-based; settings: Human immunodeficiency virus 1, HeLa, read-out: IC50 (nM) Range
Experimental: as §1, §2, §3, §4, §5, §6, §7

[7] = tested on: isogenic HIV-1 RT mutant virus V106I; test: HeLa cell assay (HIV-LTR β-galactosidase reporter); format: cell-based; settings: Human immunodeficiency virus 1, HeLa, read-out: IC50 (nM) Range
Experimental: as §1, §2, §3, §4, §5, §6, §7

[8] = Virus Type HIV-1, Assay MT4, read-out: IC50 (nM) Range

Row | Compound | IC50 [1] [nM] | IC50 [2] [nM] | IC50 [3] [nM] | IC50 (HIV-1 (strain IIIB); [8]) [nM] | IC50 (NEV-R) [nM] | IC50 (WTRVA) [nM] | further results
1 | Cc1cc(N2CC[S+]([O-])CC2)ccc1NC(=O)COc1ccc(Cl)cc1C(=O)c1cccs1 [Compound 122] | 101 to 1000 | 11 to 100 | 1000 to 3000 | < 10 | 11 to 100 | 11 to 100 | 
2 | Cc1cc(N2CC[S+]([O-])CC2)ccc1NC(=O)COc1ccc(Cl)cc1C(=O)c1nccs1 [Compound 8] |  |  |  | 11 to 100 | 101 to 1000 |  | 
3 | O=C(COc1ccc(Cl)cc1C(=O)c1ccco1)Nc1ccc2cn[nH]c2c1 [Compound 435] | 11 to 100 | < 10 | 101 to 1000 | < 10 | 11 to 100 | < 10 | 
4 | COc1ccc(NC(=O)COc2ccc(Cl)cc2C(=O)c2cc(F)cc(F)c2)cn1 [Compound 274] |  |  |  |  |  |  | melting point: 185 to 187 °C
5 | O=C(COc1ccc(Cl)cc1C(=O)c1cc(F)cc(F)c1)Nc1ccc(Cl)nc1 [Compound 275] |  |  |  |  |  |  | melting point: 198 to 200 °C
6 | Cc1cc(S(N)(=O)=O)ccc1NC(=O)COc1ccc(Cl)cc1C(=O)c1cc(Cl)cc(Cl)c1 [Compound 79] |  | < 10 | < 10 | < 10 | < 10 |  | IC50 (HIV-2): 1000 to 3000 nM
7 | CS(=O)(=O)Nc1ccc(NC(=O)COc2ccc(Cl)cc2C(=O)c2ccccc2)cc1 [Compound 338] | 11 to 100 | 11 to 100 | 101 to 1000 | < 10 | 11 to 100 | < 10 | 
8 | Cc1cc(S(N)(=O)=O)ccc1NC(=O)COc1ccc(Cl)cc1C(=O)c1cc(C#N)cc(C#N)c1 [Compound 601] | < 10 | < 10 |  | < 10 | < 10 | < 10 | IC50 [4]: < 10 nM
9 | O=C(COc1ccc(Cl)cc1C(=O)c1nccs1)Nc1ccccc1 [Compound 1] |  |  |  | 101 to 1000 | 1000 to 3000 |  | 
10 | O=C(COc1ccc(Cl)cc1C(=O)c1ccccc1)Nc1ccc2cn[nH]c2c1 [Compound 387] | 11 to 100 | < 10 | 11 to 100 | < 10 | 11 to 100 | < 10 | 
11 | Cc1cc(Cl)cc(C(=O)c2cc(Cl)ccc2OCC(=O)Nc2ccc(S(N)(=O)=O)cc2C)c1 [Compound 483] | 101 to 1000 | 101 to 1000 |  | 11 to 100 | < 10 | 11 to 100 | IC50 [5]: 11 to 100 nM; IC50 [6]: 101 to 1000 nM; IC50 [7]: < 10 nM
12 | O=C(COc1ccc(Cl)cc1C(=O)c1cc2ccccc2o1)Nc1ccccc1 [Compound 9] |  |  |  | 11 to 100 | 101 to 1000 |  | 
13 | Cc1cc(OCCCN2CCOCC2)ccc1NC(=O)COc1ccc(Cl)cc1C(=O)c1cccs1 [Compound 120] | 11 to 100 | 11 to 100 | 101 to 1000 | 11 to 100 | 11 to 100 | 11 to 100 | 
14 | O=C(COc1ccc(Cl)cc1C(=O)c1ccccc1)Nc1ccc(-n2cncn2)cc1 [Compound 103] |  | 11 to 100 |  | 11 to 100 | 101 to 1000 |  | 
15 | Cc1cn([C@H]2C[C@H](N=[N+]=[N-])[C@@H](CO)O2)c(=O)[nH]c1=O [3′-azido-3′-deoxythymidine, reference compound] |  |  |  |  |  |  | IC50 (HIV-1 (strain IIIB); control and standard tested in every MT4 assay, 0.01 to 1 μM, read-out: expected range of IC50 values): 40 to 120 nM
16 | O=C(COc1ccc(Cl)cc1C(=O)c1nccs1)Nc1ccc2[nH]ncc2c1 [Compound 5] |  |  |  | 11 to 100 | 101 to 1000 |  | 
17 | O=C(COc1ccc(Cl)cc1C(=O)c1cc(F)cc(F)c1)Nc1ccc2c(c1)CS(=O)(=O)C2 [Compound 277] |  |  |  |  |  |  | melting point: 197 to 199 °C
18 | O=C(c1cc(F)cc(F)c1)c1cc(Cl)ccc1OCC(=O)N1CCc2ccccc21 [Compound 276] |  |  |  |  |  |  | melting point: 158 to 160 °C
